Patent US20050244414A1, “Method to ameliorate osteolysis and metastasis” (XENOTECH INCORPORATED, priority 1995, published 2005)

B1: PTH: parathyroid hormone, bone resorption stimulating factor added to culture medium (protein, UniProt P01270 32-115, looked up)
Parathyroid hormone: SVSEIQLMHNLGKHLNSMERVEWLRKKLQDVHNFVALGAPLAPRDAGSQRPRKKEDNVLVESHEKSLGEADKADVNVLTKAKSQ
modifications: Parathyroid hormone
notes: parathyroid hormone, bone resorption stimulating factor added to culture medium

How the values were obtained:
bone resorption = details: cited from earlier work
fetal rat long bone = assay: Bone resorption measured as 45Ca release in organ culture; format: cell-based; details: stimulating factor alone at 10 ng/ml, 120 hours; untreated bones roughly 20%
Protocol: In this example, the percentage of labeled calcium (^45Ca) from fetal rat long bone was used as a measure of bone resorption. To label the bones, pregnant female rats at the 18th day of gestation were injected subcutaneously with 50 μCi of labeled calcium salt. The embryos were harvested the next day, at 19 days gestation, and long bones were obtained from the fetuses. The bones were cultured in standard media for 120 hours in the presence or absence of various putative bone resorption stimulation factors and in the presence and absence of the anti-PTH-rp (1-34) antibody used in Preparation A. The results are shown in FIG. 2.

Row | Molecule | potency relative to etidronate, ability to inhibit bone resorption (bone resorption) | release of labeled calcium (45Ca) into the medium (fetal rat long bone) [%]
1 | NCCC(O)(P(=O)(O)O)P(=O)(O)O [pamidronate] | approximately 100 times | 
2 | parathyroid hormone-related protein [PTH-rp] |  | ~90
3 | B1 |  | ~90
